# Experimental data as given in PubChem BioAssay AID330 (DTP/NCI, 2004).
# Where “and” joins values, the source holds several entries; their conditions need not be identical. Equal values may be shown once. Toxic doses and inconclusive results are not listed.
# System: P388 leukemia ip, CD2F1 mice, survival T/C
# Experiment: NCI In Vivo Anticancer Drug Screen. Data for tumor model P388 Leukemia (intraperitoneal) in CD2F1 (CDF1) mice
# Details: endpoint: median survival time, higher = longer survival
# Outline: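 Mice carrying the transplanted tumor received test compound or vehicle. Survival was recorded in each group, and the value is the treated-group measurement divided by that of the vehicle-treated control group.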
# [1] = dose: 50.0 mg/kg/injection, schedule: Q01DX005 (ip), vehicle: Klucel (hydroxypropylcellulose) (HPC)
# [2] = dose: 100.0 mg/kg/injection, schedule: Q01DX005 (ip), vehicle: Klucel (hydroxypropylcellulose) (HPC)
# [3] = dose: 200.0 mg/kg/injection, schedule: Q01DX005 (ip), vehicle: Klucel (hydroxypropylcellulose) (HPC)
# [4] = dose: 60.0 mg/kg/injection, schedule: Q01DX005 (ip), vehicle: saline
# [5] = dose: 100.0 mg/kg/injection, schedule: Q01DX009 (ip), vehicle: Klucel (hydroxypropylcellulose) (HPC)
# [6] = dose: 200.0 mg/kg/injection, schedule: Q01DX009 (ip), vehicle: Klucel (hydroxypropylcellulose) (HPC)
# [7] = dose: 60.0 mg/kg/injection, schedule: Q01DX005 (ip), vehicle: saline with Tween-80
# [8] = dose: 120.0 mg/kg/injection, schedule: Q01DX005 (ip), vehicle: saline with Tween-80
# [9] = dose: 60.0 mg/kg/injection, schedule: Q01DX005 (ip), vehicle: Klucel (hydroxypropylcellulose) (HPC)
# [10] = dose: 120.0 mg/kg/injection, schedule: Q01DX005 (ip), vehicle: Klucel (hydroxypropylcellulose) (HPC)
# [11] = dose: 240.0 mg/kg/injection, schedule: Q01DX005 (ip), vehicle: Klucel (hydroxypropylcellulose) (HPC)
# [12] = dose: 100.0 mg/kg/injection, schedule: Q01DX009 (ip), vehicle: saline with Tween-80
# [13] = dose: 200.0 mg/kg/injection, schedule: Q01DX009 (ip), vehicle: saline with Tween-80
# [14] = dose: 50.0 mg/kg/injection, schedule: Q01DX009 (ip), vehicle: saline with Tween-80
smiles,measurement,setting,value
O=C1OC2(c3ccc(O)cc3Oc3cc(O)ccc32)c2cccc3cccc1c23,T/C,[1],105 % of control
same,T/C,[2],99 % of control
same,T/C,[3],103 % of control
CCn1c(Cl)c(/C=N\Nc2cccc([N+](=O)[O-])c2)c2ccccc21,T/C,"dose: 25.0 mg/kg/injection, schedule: Q01DX001 (ip), vehicle: Klucel (hydroxypropylcellulose) (HPC)",93 % of control
same,T/C,"dose: 50.0 mg/kg/injection, schedule: Q01DX001 (ip), vehicle: Klucel (hydroxypropylcellulose) (HPC)",87 % of control
same,T/C,"dose: 100.0 mg/kg/injection, schedule: Q01DX001 (ip), vehicle: Klucel (hydroxypropylcellulose) (HPC)",86 % of control and 93 % of control
COC1CC(O)(CC#N)C(OC(=O)c2ccc([N+](=O)[O-])cc2)C(COC(=O)c2ccc([N+](=O)[O-])cc2)O1 (centres undefined),T/C,"dose: 100.0 mg/kg/injection, schedule: Q04DX003 (ip), vehicle: Klucel (hydroxypropylcellulose) (HPC)",94 % of control
same,T/C,"dose: 200.0 mg/kg/injection, schedule: Q04DX003 (ip), vehicle: Klucel (hydroxypropylcellulose) (HPC)",101 % of control
same,T/C,"dose: 400.0 mg/kg/injection, schedule: Q04DX003 (ip), vehicle: Klucel (hydroxypropylcellulose) (HPC)",104 % of control
Nc1ccc(-c2ccc(N=C(/C=N/O)NO)cc2)cc1,T/C,[1],102 % of control
same,T/C,[2],100 % of control
same,T/C,[3],94 % of control
C/C(=N\OC(=O)CNOC(C)(C)C)c1ccccn1,T/C,"dose: 100.0 mg/kg/injection, schedule: Q01DX001 (ip), vehicle: saline with Tween-80",103 % of control
same,T/C,"dose: 200.0 mg/kg/injection, schedule: Q01DX001 (ip), vehicle: saline with Tween-80",99 % of control
same,T/C,"dose: 400.0 mg/kg/injection, schedule: Q01DX001 (ip), vehicle: saline with Tween-80",99 % of control
CC(C)Cn1c(Cl)c(C(=O)O)c2ccccc21,T/C,"dose: 100.0 mg/kg/injection, schedule: Q04DX002 (ip), vehicle: Klucel (hydroxypropylcellulose) (HPC)",92 % of control
same,T/C,"dose: 200.0 mg/kg/injection, schedule: Q04DX002 (ip), vehicle: Klucel (hydroxypropylcellulose) (HPC)",88 % of control
O=C1C(c2[nH]c3cccc(Cl)c3c2O)=Nc2cccc(Cl)c21,T/C,"dose: 50.0 mg/kg/injection, schedule: Q01DX005 (ip), vehicle: saline with Tween-80",100 % of control
same,T/C,"dose: 100.0 mg/kg/injection, schedule: Q01DX005 (ip), vehicle: saline with Tween-80",104 % of control
same,T/C,"dose: 200.0 mg/kg/injection, schedule: Q01DX005 (ip), vehicle: saline with Tween-80",109 % of control
C/C(=N\N=C(N)N)c1c(C)nn(C(=N)N)c1C,T/C,"dose: 15.0 mg/kg/injection, schedule: Q01DX005 (ip), vehicle: saline",99 % of control
same,T/C,"dose: 30.0 mg/kg/injection, schedule: Q01DX005 (ip), vehicle: saline",98 % of control
same,T/C,[4],99 % of control and 111 % of control
COC1OC(CO)C2OC12 (centres undefined),T/C,"dose: 50.0 mg/kg/injection, schedule: Q01DX005 (ip), vehicle: saline",93 % of control and 103 % of control
same,T/C,"dose: 100.0 mg/kg/injection, schedule: Q01DX005 (ip), vehicle: saline",94 % of control and 100 % of control
same,T/C,"dose: 200.0 mg/kg/injection, schedule: Q01DX005 (ip), vehicle: saline",88 % of control and 99 % of control
Cc1onc(-c2ccccc2Cl)c1C1=N/C(=C/c2cc(Cl)cc(Cl)c2O)C(=O)O1,T/C,"dose: 50.0 mg/kg/injection, schedule: Q01DX009 (ip), vehicle: Klucel (hydroxypropylcellulose) (HPC)",114 % of control
same,T/C,[5],104 % of control
same,T/C,[6],96 % of control
C=C(/C=C/C1OC2OC(C)(C)OC2C1OC)OP(=O)(OCC)OCC (centres undefined),T/C,"dose: 100.0 mg/kg/injection, schedule: Q04DX002 (ip), vehicle: saline with Tween-80",103 % of control
same,T/C,"dose: 200.0 mg/kg/injection, schedule: Q04DX002 (ip), vehicle: saline with Tween-80",100 % of control
same,T/C,"dose: 400.0 mg/kg/injection, schedule: Q04DX002 (ip), vehicle: saline with Tween-80",91 % of control
O=C1OCCN1CCCl,T/C,[5],118 % of control
same,T/C,[6],121 % of control
same,T/C,"dose: 400.0 mg/kg/injection, schedule: Q01DX009 (ip), vehicle: Klucel (hydroxypropylcellulose) (HPC)",121 % of control
CCCS/C(N)=N/N=C/c1ccc([N+](=O)[O-])o1,T/C,"dose: 6.25 mg/kg/injection, schedule: Q01DX009 (ip), vehicle: suspension in saline",102 % of control
same,T/C,"dose: 12.5 mg/kg/injection, schedule: Q01DX009 (ip), vehicle: suspension in saline",92 % of control
same,T/C,"dose: 25.0 mg/kg/injection, schedule: Q01DX009 (ip), vehicle: suspension in saline",91 % of control
same,T/C,"dose: 50.0 mg/kg/injection, schedule: Q01DX009 (ip), vehicle: suspension in saline",109 % of control
CC(=O)OC1C(=O)C(C)(C)CN(C(C)(C)C)CC1(C)C (centres undefined),T/C,"dose: 50.0 mg/kg/injection, schedule: Q01DX001 (ip), vehicle: saline sonified",100 % of control
same,T/C,"dose: 100.0 mg/kg/injection, schedule: Q01DX001 (ip), vehicle: saline sonified",104 % of control
same,T/C,"dose: 200.0 mg/kg/injection, schedule: Q01DX001 (ip), vehicle: saline sonified",95 % of control
CSC(=S)N/N=C(\C)c1cccc(C)n1,T/C,"dose: 7.5 mg/kg/injection, schedule: Q01DX005 (ip), vehicle: saline with Tween-80",100 % of control
same,T/C,"dose: 15.0 mg/kg/injection, schedule: Q01DX005 (ip), vehicle: saline with Tween-80",102 % of control
same,T/C,"dose: 30.0 mg/kg/injection, schedule: Q01DX005 (ip), vehicle: saline with Tween-80",105 % of control
same,T/C,[7],100 % of control
same,T/C,[8],87 % of control
same,T/C,"dose: 240.0 mg/kg/injection, schedule: Q01DX005 (ip), vehicle: saline with Tween-80",113 % of control
CCOC(=O)c1cc(Cl)ccc1OS(N)(=O)=O,T/C,[9],105 % of control
same,T/C,[10],100 % of control
same,T/C,[11],99 % of control
CCCCCCC1CC2CCCCN2O1 (centres undefined),T/C,"dose: 40.0 mg/kg/injection, schedule: Q01DX009 (ip), vehicle: Klucel (hydroxypropylcellulose) (HPC)",113 % of control
same,T/C,"dose: 80.0 mg/kg/injection, schedule: Q01DX009 (ip), vehicle: Klucel (hydroxypropylcellulose) (HPC)",107 % of control
same,T/C,"dose: 160.0 mg/kg/injection, schedule: Q01DX009 (ip), vehicle: Klucel (hydroxypropylcellulose) (HPC)",119 % of control
O=C1NC(=S)N/C1=C\c1ccc(Cl)c(Cl)c1,T/C,[12],95 % of control
same,T/C,[13],94 % of control
same,T/C,"dose: 400.0 mg/kg/injection, schedule: Q01DX009 (ip), vehicle: saline with Tween-80",91 % of control
CC(C)N(c1cc(=O)nc2ccccn12)C(C)C,T/C,[4],101 % of control
same,T/C,"dose: 120.0 mg/kg/injection, schedule: Q01DX005 (ip), vehicle: saline",98 % of control
same,T/C,"dose: 240.0 mg/kg/injection, schedule: Q01DX005 (ip), vehicle: saline",100 % of control
Cc1ccc(NC(=O)N(NC(=O)NNc2ccccc2)c2ccccc2)c(C)c1,T/C,[14],99 % of control
same,T/C,[12],93 % of control
same,T/C,[13],92 % of control
N#Cc1ccc(OC(=O)Nc2ccc(F)cc2)cc1,T/C,[7],106 % of control
same,T/C,[8],104 % of control
O=C1CC(CO)CC2c3[nH]c4ccccc4c3CCN12 (centres undefined),T/C,"dose: 17.5 mg/kg/injection, schedule: Q01DX005 (ip), vehicle: Klucel (hydroxypropylcellulose) (HPC)",108 % of control
same,T/C,"dose: 35.0 mg/kg/injection, schedule: Q01DX005 (ip), vehicle: Klucel (hydroxypropylcellulose) (HPC)",91 % of control
same,T/C,"dose: 70.0 mg/kg/injection, schedule: Q01DX005 (ip), vehicle: Klucel (hydroxypropylcellulose) (HPC)",97 % of control
O=S(=O)(F)/C=C/c1ccccc1,T/C,[14],109 % of control
same,T/C,[12],109 % of control
CC1(C)CC(=O)C2=C(SC3=C(C2)C(=O)CC(C)(C)S3)S1,T/C,[9],104 % of control
same,T/C,[10],100 % of control
same,T/C,[11],87 % of control
CCCNC(=O)OCc1c(COC(=O)NCCC)c(-c2ccc(Cl)c(Cl)c2)n2c1CCC2,T/C,"dose: 12.5 mg/kg/injection, schedule: Q01DX009 (ip), vehicle: distilled water + Tween-80",120 % of control
same,T/C,"dose: 20.0 mg/kg/injection, schedule: Q01DX009 (ip), vehicle: distilled water + Tween-80",154 % of control
same,T/C,"dose: 40.0 mg/kg/injection, schedule: Q01DX009 (ip), vehicle: distilled water + Tween-80",154 % of control and 172 % of control
same,T/C,"dose: 50.0 mg/kg/injection, schedule: Q01DX009 (ip), vehicle: distilled water + Tween-80",166 % of control
same,T/C,"dose: 80.0 mg/kg/injection, schedule: Q01DX009 (ip), vehicle: distilled water + Tween-80",102 % of control and 91 % of control
same,T/C,"dose: 100.0 mg/kg/injection, schedule: Q01DX009 (ip), vehicle: distilled water + Tween-80",95 % of control
